According to US20110251379A1, “COMPOUNDS USEFUL FOR TREATING NEURODEGENERATIVE DISORDERS” (Satori Pharmaceuticals, Inc., priority 2010, published 2011):
Like-named read-outs stand apart in the source and are kept apart here.

How the values were obtained:
Assay type in all cases: cell-based
Aβ-42 = test: MSD Human (6E10) Ab 3-PLEX elisa, conditioned media of 2B7 cells: Aβ-42; settings: for IC50 / inhibition at 20 µM: Homo sapiens; for inhibition at 20 µM: Aβ-42, 20 μM
Description: (§1) Assays were conducted to determine the ability of a Compound of Formula I to modulate […], and Aβ-38.
(§2) Plates with capture antibodies were blocked for 1-2 hours at room temperature with 150 μL of the manufactures blocking reagent.
(§3) Conditioned Media: • Cultured 2B7 cells in 96 well plate with 250 uL of media per well until confluent; • Prepared serial dilutions of compounds in DMSO at 100× the final desired concentration; • Washed wells with 2B7 cells 1× with 250 uL of media; • Diluted DMSO stocks 1:100 into media: • Added 250 μL of media containing compounds (1% DMSO) to wells with 2B7 cells for 5 hours at 37° C.
(§4) Elisa Sample Prep: • Diluted conditioned media: 1 part media with 1% DMSO and 1 part blocking buffer; • 150 μL of the 250 μL of conditioned media were used.
(§5) […] CURVE SAMPLE PREP: Prepared per manufacturer's protocol (see above) • Seven point standard curve samples were prepared that contained Aβ-42, Aβ-40, and Aβ-38. The highest concentration of Aβ-42 and Aβ-3-38 was 3,000 pg/mL and the highest concentration of Aβ-40 was 10,000 pg/mL. Subsequent serial dilutions were 1:3 and the final composition of each sample was 1 part blocking buffer and 1 part cell medium containing 1% DMSO.
(§6) Overnight Sample Incubation: • Blocked plates are washed 5× with MSD wash buffer with a plate washer • 25 uL of detection antibody and blocker G reagent in MSD blocking solution is added • 25 uL of samples (1 part conditioned media containing 1% DMSO and 1 part MSD blocking buffer) are then added. • plates are incubated overnight at 4 degrees C. or 2 hours at room temp
(§7) Final Wash and Readout: • Wash wells 5× with MSD wash buffer • Added 150 μL 2×MSD read buffer • Read with MSD imager.
(§8) A-Beta peptide levels for each peptide are calculated from the standard curve using the MSD software provided with the MSD 2400 Imager. Percent vehicle values for each compound dosage were then calculated and fit to a 4 parameter curve generating IC50 values.

Aβ-40 = test: MSD Human (6E10) Ab 3-PLEX elisa, conditioned media of 2B7 cells: Aβ-40; settings: for inhibition at 20 µM: Aβ-40, 20 μM
Description: as §1, §2, §3, §4, §5, §6, §7, §8

Aβ-38 = test: MSD Human (6E10) Ab 3-PLEX elisa, conditioned media of 2B7 cells: Aβ-38; settings: Homo sapiens; for IC50: Aβ-38 (superscript a); for inhibition at 20 µM: Aβ-38, 20 μM
Description: as §1, §2, §3, §4, §5, §6, §7, §8

[1] = Aβ-42 (superscript c), read-out: 50% reduction value
[2] = Aβ-42 (superscript c), read-out: IC50 range
[3] = Homo sapiens, Aβ-40 (superscript b), read-out: 50% reduction value
[4] = Homo sapiens, Aβ-40 (superscript b), read-out: IC50 range

Row | Structure (SMILES) | IC50 (Aβ-42; [1]) [µM] | IC50 (Aβ-42; [2]) [µM] | IC50 (Aβ-40; [3]) [µM] | IC50 (Aβ-38; read-out: 50% reduction value) [µM] | IC50 (Aβ-38; read-out: IC50 range) [µM] | IC50 (Aβ-40; [4]) [µM] | inhibition at 20 µM (Aβ-42) [%] | inhibition at 20 µM (Aβ-40; Homo sapiens) [%] | further results
1 | CC(=O)O[C@@H]([C@H]1C[C@@H](C)C2C(O1)[C@H](O)[C@@]1(C)[C@@H]3CC[C@H]4C(C)(C)[C@@H](OC(=O)c5cccnc5)CC[C@@]45C[C@@]35CC[C@]21C)C(C)(C)O (stereo partly drawn) [drawing 1200] | < 1 | < 1 | > 10 | < 1 | < 1 |  |  |  | 
2 | C[C@@H]1CC(CCC(N)=O)OC2C1[C@@]1(C)CC[C@@]34C[C@@]35CC[C@H](OC3CN(C(=O)CC6CC6)CCO3)C(C)(C)[C@@H]5CC[C@H]4[C@]1(C)[C@H]2O (stereo partly drawn) |  | 1 to 10 |  |  | 1 to 10 | > 10 |  |  | 
3 | C[C@@H]1C[C@H]([C@H](OC(N)=O)C(C)(C)O)O[C@H]2[C@H]1[C@@]1(C)CC[C@@]34C[C@@]35CC[C@H](O[C@H]3CN(C6COC6)CCO3)C(C)(C)[C@@H]5CCC4[C@]1(C)[C@H]2O (stereo partly drawn) |  |  | > 10 | 1 to 10 |  |  | 25 to 75 |  | 
4 | C[C@@H]1CC(CNC(C(=O)O)C(F)(F)F)OC2[C@H]1[C@@]1(C)CC[C@@]34C[C@@]35CC[C@H](O[C@H]3CN(C6COC6)CCO3)C(C)(C)[C@@H]5CCC4[C@]1(C)[C@H]2O (stereo partly drawn) |  |  |  |  |  |  | 25 to 75 | 25 to 75 | inhibition at 20 µM (Aβ-38): < 25%
5 | CNC(=O)O[C@H](C(C)C)C1C[C@@H](C)[C@H]2C(O1)[C@H](O)[C@@]1(C)C3CC[C@H]4C(C)(C)[C@@H](O)CC[C@@]45C[C@@]35CC[C@]21C (stereo partly drawn) |  |  |  | 1 to 10 | < 1 |  |  |  | 50% reduction value (Aβ-42; Aβ-42 (superscript c)): G/H; 50% reduction value (Aβ-40; Aβ-40 (superscript b)): H/I
6 | CC(C)[C@@H](OC(=O)N1CCC1)C1C[C@@H](C)[C@H]2C(O1)[C@H](O)[C@@]1(C)C3CC[C@H]4C(C)(C)C(OC(=O)N5CC(C(=O)O)C5)CC[C@@]45C[C@@]35CC[C@]21C (stereo partly drawn) | < 1 |  | 1 to 10 | < 1 |  |  |  |  | 
7 | C[C@@H]1CC([C@H]([S+](C)[O-])C(C)(C)O)OC2[C@H]1[C@@]1(C)CC[C@@]34C[C@@]35CCC(O)C(C)(C)[C@@H]5CCC4[C@]1(C)[C@H]2O (stereo partly drawn) |  |  |  | 1 to 10 |  |  | 25 to 75 | 25 to 75 | 
8 | COC(=O)NCCC1C[C@@H](C)C2C(O1)[C@H](O)[C@@]1(C)[C@@H]3CC[C@H]4C(C)(C)[C@@H](OC5CN(C(=O)CC6CC6)CCO5)CC[C@@]45C[C@@]35CC[C@]21C (stereo partly drawn) |  | 1 to 10 |  |  | 1 to 10 |  |  |  | inhibition at 100 µM (Aβ-40; Homo sapiens, Aβ-40, 100 μM): 25 to 75%
9 | CC(C)[C@@H](OC(=O)N(C)C)C1C[C@@H](C)[C@H]2C(O1)[C@H](O)[C@@]1(C)C3CC[C@H]4C(C)(C)[C@@H](O)CC[C@@]45C[C@@]35CC[C@]21C (stereo partly drawn) | < 10 | 1 to 10 | 1 to 10 | < 1 | 1 to 10 | > 10 |  |  | 
10 | CCO[C@@H]([C@H]1C[C@@H](C)[C@H]2[C@H](O1)[C@H](O)[C@@]1(C)[C@@H]3CC[C@H]4C(C)(C)[C@@H](OC5CN(C(=O)C(C)C)CCO5)CC[C@@]45C[C@@]35CC[C@]21C)C(C)(C)O (stereo partly drawn) | < 1 | < 1 | 1 to 10 | < 1 | < 1 | 1 to 10 |  |  | 
11 | CCO[C@@H](C1C[C@@H](C)[C@H]2C(O1)[C@H](O)[C@@]1(C)C3CC[C@H]4C(C)(C)[C@@H](O)CC[C@@]45C[C@@]35CC[C@]21C)C(C)(C)O (stereo partly drawn) | < 1 | < 1 |  | < 1 |  | < 1 |  | 25 to 75 | inhibition at 20 µM (Aβ-38): 25 to 75%
12 | CC(C)[C@@H](OC(=O)N1CCC1)C1C[C@@H](C)[C@H]2C(O1)[C@H](O)[C@@]1(C)C3CC[C@H]4C(C)(C)C(OC(=O)NC5COC5)CC[C@@]45C[C@@]35CC[C@]21C (stereo partly drawn) | < 1 |  | > 10 | < 1 |  |  |  |  | 
13 | C[C@@H]1CC([C@@H](C(C)(C)O)S(C)(=O)=O)OC2[C@H]1[C@@]1(C)CC[C@@]34C[C@@]35CCC(O)C(C)(C)[C@@H]5CCC4[C@]1(C)[C@H]2O (stereo partly drawn) |  |  |  | 1 to 10 |  |  | 25 to 75 | 25 to 75 | 
